Test results: patent US8722849B2, “Polypeptides” (Novo Nordisk A/S, priority 2011, dated 2014)
Read-outs that look alike come from different tables or passages of the source. Starred links: 1 amine or outer side, 2 acyl side, 3 side chain; linkers in the order of their positions; H or OH if unused. Positions of bridges follow the written chain, without caps; N, C: chain ends. Residues, ends and D or L forms follow the SMILES beside them. *: point of attachment. C20 diacid = O=C(O)CCCCCCCCCCCCCCCCCCC(=O)*; γGlu = O=C(O)[C@H](CCC(=O)[*:2])N[*:1]; AEEA = NCCOCCOCC(=O)O

Assay: Assay (IV) determination of solubility
Format: physicochemical
In short: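 Eight 100 mM buffers (glycylglycine pH 3.0–5.0, bistrispropane pH 6.0–8.0) each received an equal volume of polypeptide dissolved in water at ~500 nmol/ml. Soluble polypeptide was measured by HPLC following 18 hours at room temperature and centrifugation.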

[1] = pH 3, pH 3.0, read-out: Solubility pH 3.0
[2] = pH 4, pH 4.0, 18 hours at room temperature, Table 2, read-out: Solubility pH 4.0
[3] = pH 4, pH 4.0, read-out: Solubility pH 4.0
[4] = pH 5, pH 5.0, read-out: Solubility pH 5.0
[5] = pH 6, pH 6.0, read-out: Solubility pH 6.0
[6] = pH 6.5, pH 6.5, read-out: Solubility pH 6.5
[7] = pH 7, pH 7.0, 18 hours at room temperature, Table 3, read-out: Solubility pH 7.0
[8] = pH 7, pH 7.0, read-out: Solubility pH 7.0
[9] = pH 7.5, pH 7.5, read-out: Solubility pH 7.5
[10] = pH 8, pH 8.0, read-out: Solubility pH 8.0

Measured: solubility

CC[C@H](C)[C@H](NC(=O)[C@@H]1CCCN1C(=O)CNC(=O)[C@H](Cc1ccccc1)NC(=O)[C@H](CC(N)=O)NC(=O)[C@H](C)NC(=O)[C@H](CO)NC(=O)[C@H](CO)NC(=O)[C@H](Cc1c[nH]cn1)NC(=O)[C@H](Cc1c[nH]cn1)NC(=O)[C@H](CC(C)C)NC(=O)[C@H](Cc1ccccc1)NC(=O)[C@H](CCC(=O)O)NC(=O)[C@H](C)NC(=O)[C@H](CC(C)C)NC(=O)[C@H](CCCNC(=N)N)NC(=O)[C@H](CCC(N)=O)NC(=O)[C@@H](NC(=O)[C@H](C)NC(=O)[C@@H]1CSSC[C@H](NC(=O)[C@H](CCCCN)NC(=O)COCCOCCNC(=O)COCCOCCNC(=O)CC[C@H](NC(=O)CCCCCCCCCCCCCCCCCCC(=O)O)C(=O)O)C(=O)N[C@@H](CC(N)=O)C(=O)N[C@@H]([C@@H](C)O)C(=O)N[C@@H](C)C(=O)N[C@@H]([C@@H](C)O)C(=O)N1)[C@@H](C)O)C(=O)N[C@@H](CC(C)C)C(=O)N1CCC[C@H]1C(=O)N1CCC[C@H]1C(=O)N[C@H](C(=O)N[C@@H](CC(N)=O)C(=O)N[C@H](C(=O)NCC(=O)N[C@@H](CO)C(=O)N[C@@H](CC(N)=O)C(=O)N[C@H](C(=O)N1CCC[C@H]1C(N)=O)[C@@H](C)O)C(C)C)[C@@H](C)O [Example 169, N-alpha-[2-(2-{2-[2-(2-{2-[(S)-4-Carboxy-4-(19-carboxyheptadecanoylamino)butyrylamino]ethoxy}ethoxy)acetylamino]ethoxy}ethoxy)acetyl]-[Glu14,His17,Ala21,Pro37]-pramlintide] ({C20 diacid-γGlu-AEEA-AEEA}-KCNTATCATQRLAEFLHHSSANFGPILPPTNVGSNTP-NH2; disulfide 2-7)
> 200 µM: [1] | [2] | [3] | [4] | [5] | [6] | [7] | [8] | [9] | [10]

CC(C)C[C@H](NC(=O)[C@H](CCCNC(=N)N)NC(=O)[C@H](CCC(N)=O)NC(=O)[C@@H](NC(=O)[C@H](C)NC(=O)[C@@H]1CSSC[C@H](NC(=O)[C@H](CCCCN)NC(=O)CC[C@H](NC(=O)CCCCCCCCCCCCCCCCCCC(=O)O)C(=O)O)C(=O)N[C@@H](CC(N)=O)C(=O)N[C@@H]([C@@H](C)O)C(=O)N[C@@H](C)C(=O)N[C@@H]([C@@H](C)O)C(=O)N1)[C@@H](C)O)C(=O)N[C@@H](C)C(=O)N[C@@H](CCC(=O)O)C(=O)N[C@@H](Cc1ccccc1)C(=O)N[C@@H](CC(C)C)C(=O)N[C@H](C(=O)N[C@@H](Cc1c[nH]cn1)C(=O)N[C@@H](CO)C(=O)N[C@@H](CO)C(=O)N[C@@H](CO)C(=O)N[C@@H](CO)C(=O)N1CCC[C@H]1C(=O)NCC(=O)N[C@@H](C)C(=O)N1CCC[C@H]1C(=O)N[C@@H](CC(C)C)C(=O)N[C@@H](CO)C(=O)N[C@@H](CO)C(=O)N[C@H](C(=O)N[C@@H](CC(=O)O)C(=O)N[C@H](C(=O)NCC(=O)N[C@@H](CO)C(=O)N[C@@H](CC(=O)O)C(=O)N[C@H](C(=O)N1CCC[C@H]1C(N)=O)[C@@H](C)O)C(C)C)[C@@H](C)O)C(C)C [Example 171, N-alpha-[(S)-4-Carboxy-4-(19-carboxynonadecanoylamino)butyryl]-[Glu14,Ser21,Ser22,Pro23,Ala25,Pro26,Ser28,Ser29,Asp31,Asp35,Pro37]-pramlintide] ({C20 diacid-γGlu}-KCNTATCATQRLAEFLVHSSSSPGAPLSSTDVGSDTP-NH2; disulfide 2-7)
> 200 µM: [1] | [2] | [3] | [4] | [5] | [6] | [7] | [8] | [9] | [10]

CC[C@H](C)[C@H](NC(=O)[C@@H]1CCCN1C(=O)CNC(=O)[C@H](Cc1ccccc1)NC(=O)[C@H](CC(N)=O)NC(=O)[C@H](CC(N)=O)NC(=O)[C@H](CO)NC(=O)[C@H](CO)NC(=O)[C@H](Cc1c[nH]cn1)NC(=O)[C@H](CCCNC(=N)N)NC(=O)[C@H](CC(C)C)NC(=O)[C@H](Cc1ccccc1)NC(=O)[C@H](CCC(=O)O)NC(=O)[C@H](C)NC(=O)[C@H](CC(C)C)NC(=O)[C@H](CCCNC(=N)N)NC(=O)[C@H](CCC(N)=O)NC(=O)[C@@H](NC(=O)[C@H](C)NC(=O)[C@@H]1CSSC[C@H](NC(=O)[C@@H](N)CCCCNC(=O)CC[C@H](NC(=O)CCCCCCCCCCCCCCCCCCC(=O)O)C(=O)O)C(=O)N[C@@H](CC(N)=O)C(=O)N[C@@H]([C@@H](C)O)C(=O)N[C@@H](C)C(=O)N[C@@H]([C@@H](C)O)C(=O)N1)[C@@H](C)O)C(=O)N[C@@H](CC(C)C)C(=O)N1CCC[C@H]1C(=O)N1CCC[C@H]1C(=O)N[C@H](C(=O)N[C@@H](CC(N)=O)C(=O)N[C@H](C(=O)NCC(=O)N[C@@H](CO)C(=O)N[C@@H](CC(N)=O)C(=O)N[C@H](C(=O)N1CCC[C@H]1C(N)=O)[C@@H](C)O)C(C)C)[C@@H](C)O [Example 177, N-epsilon1-[(S)-4-Carboxy-4-(19-carboxynonadecanoylamino)butyryl]-[Glu14,Arg17,Pro37]-pramlintide]
> 200 µM: [1] | [2] | [3] | [4] | [5] | [6] | [7] | [8] | [9] | [10]

CC[C@H](C)[C@H](NC(=O)[C@@H]1CCCN1C(=O)CNC(=O)[C@H](Cc1ccccc1)NC(=O)[C@H](CC(N)=O)NC(=O)[C@H](C)NC(=O)[C@H](CO)NC(=O)[C@H](CO)NC(=O)[C@H](Cc1c[nH]cn1)NC(=O)[C@@H](NC(=O)[C@H](CC(C)C)NC(=O)[C@H](Cc1ccccc1)NC(=O)[C@H](CCC(=O)O)NC(=O)[C@H](C)NC(=O)[C@H](CC(C)C)NC(=O)[C@H](CCCNC(=N)N)NC(=O)[C@H](CCC(N)=O)NC(=O)[C@@H](NC(=O)[C@H](C)NC(=O)[C@@H]1CSSC[C@H](NC(=O)[C@H](CCCCN)NC(=O)COCCOCCNC(=O)COCCOCCNC(=O)CC[C@H](NC(=O)CCCCCCCCCCCCCCCCCCC(=O)O)C(=O)O)C(=O)N[C@@H](CC(N)=O)C(=O)N[C@@H]([C@@H](C)O)C(=O)N[C@@H](C)C(=O)N[C@@H]([C@@H](C)O)C(=O)N1)[C@@H](C)O)C(C)C)C(=O)N[C@@H](CC(C)C)C(=O)N1CCC[C@H]1C(=O)N1CCC[C@H]1C(=O)N[C@H](C(=O)N[C@@H](CC(N)=O)C(=O)N[C@H](C(=O)NCC(=O)N[C@@H](CO)C(=O)N[C@@H](Cc1c[nH]cn1)C(=O)N[C@H](C(=O)N1CCC[C@H]1C(N)=O)[C@@H](C)O)C(C)C)[C@@H](C)O [Example 178, N-alpha-[2-(2-{2-[2-(2-{2-[(S)-4-Carboxy-4-(19-carboxyheptadecanoylamino)butyrylamino]ethoxy}ethoxy)acetylamino]ethoxy}ethoxy)acetyl]-[Glu14,Ala21,His35,Pro37]-pramlintide] ({C20 diacid-γGlu-AEEA-AEEA}-KCNTATCATQRLAEFLVHSSANFGPILPPTNVGSHTP-NH2; disulfide 2-7)
> 200 µM: [1] | [2] | [3] | [4] | [5] | [6] | [7] | [8] | [9] | [10]
